Laboratory results as given in US6924302B2, “Substituted triazole diamine derivatives as kinase inhibitors” (Ortho McNeil Pharmaceutical, Inc., priority 2000, dated 2005).
pIC50: −log10 of the molar value.

Assays:
[1] = target: FGF-R2 (Homo sapiens, UniProt P21802); test: Kinase Selectivity Assay FGF-R2; assay type: biochemical; settings: Tables 2a-2k
Procedure, shortened: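 Radiometric ^33P-γ-ATP transfer to a biotinylated peptide substrate captured on streptavidin plates; enzyme in 50 mM Tris-HCl pH 8.0, 0.1% BSA, 1% DMSO, 1 h at 30° C.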

[2] = tested on: MDA-MB-231; test: Inhibition of Cell Proliferation (14C-thymidine incorporation), MDA-MB-231; assay type: cell-based; settings: Homo sapiens, MDA-MB-231 cell line
Protocol: (§1) The ability of a test compound to inhibit the proliferation of cell growth was determined by measuring incorporation of ^14C-labelled thymidine into newly synthesized DNA within the cells. […] Cells were trypsinized and counted and 3000-8000 cells were added to each well of a 96-well CytoStar tissue culture treated scintillating microplate (Amersham #RPNQ0160) in complete medium in a volume of 100 μl. Cells were incubated for 24 hours in complete medium at 37° C. in an atmosphere containing 5% CO2. Next, 1 μl of test compound in 100% DMSO was added to the wells of the plate. DMSO only was added to control wells. Cells were incubated for 24 more hours in complete medium at 37° C. in an atmosphere containing 5% CO2. […] The plate was incubated for 24 hours at 37° C. plus 5% CO2 in drug plus ^14C-thymidine. The contents of the plate were discarded into a ^14C radioactive waste container by inverting the plate and the plate was washed twice with 200 μl PBS. 200 μl of PBS is added to each well. […] The degree of methyl ^14C-thymidine incorporation was quantified on a Packard Top Count.

[3] = tested on: SK-OV-3 ovarian adenocarcinoma; test: Inhibition of Cell Proliferation (14C-thymidine incorporation), SK-OV-3; assay type: cell-based; settings: Homo sapiens, SK-OV-3 cell line
Protocol: as §1

Chain of FGF-R2 (P21802 22-821, species assumed): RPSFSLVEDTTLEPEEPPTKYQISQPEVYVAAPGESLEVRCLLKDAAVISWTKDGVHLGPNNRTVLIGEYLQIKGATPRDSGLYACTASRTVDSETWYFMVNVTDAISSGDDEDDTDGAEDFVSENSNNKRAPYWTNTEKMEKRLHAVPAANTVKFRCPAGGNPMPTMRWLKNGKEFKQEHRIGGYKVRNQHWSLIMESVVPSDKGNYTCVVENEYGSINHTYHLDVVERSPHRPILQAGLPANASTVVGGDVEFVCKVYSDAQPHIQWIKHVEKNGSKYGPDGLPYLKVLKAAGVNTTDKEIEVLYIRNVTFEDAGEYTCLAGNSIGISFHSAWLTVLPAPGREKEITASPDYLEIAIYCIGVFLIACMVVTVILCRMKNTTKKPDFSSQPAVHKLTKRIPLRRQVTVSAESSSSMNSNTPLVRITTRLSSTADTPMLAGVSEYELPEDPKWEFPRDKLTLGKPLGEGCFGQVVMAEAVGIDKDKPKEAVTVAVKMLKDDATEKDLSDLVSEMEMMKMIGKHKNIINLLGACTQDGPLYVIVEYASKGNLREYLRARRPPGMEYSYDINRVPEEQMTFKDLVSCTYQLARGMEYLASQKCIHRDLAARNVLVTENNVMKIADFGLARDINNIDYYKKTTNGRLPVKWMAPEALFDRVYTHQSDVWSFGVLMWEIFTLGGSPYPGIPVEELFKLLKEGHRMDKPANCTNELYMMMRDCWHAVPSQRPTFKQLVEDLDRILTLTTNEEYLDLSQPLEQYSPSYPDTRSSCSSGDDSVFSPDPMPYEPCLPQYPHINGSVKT

Row | Structure (SMILES) | pIC50 [1] | IC50 [2] [nM] | IC50 [3] [nM]
1 | Nc1nc(Nc2ccc(S(N)(=O)=O)cc2)nn1C(=O)c1cccs1 [Cpd 14, 4-[[5-amino-1-(2-thienylcarbonyl)-1H-1,2,4-triazol-3-yl]amino]-benzenesulfonamide] | 7.57 | 756 | 727
2 | Nc1nc(Nc2ccc(S(=O)(=O)N3CCCCC3)cc2)nn1C(=O)c1cccs1 [Cpd 23, N^3-[4-(1-piperidinylsulfonyl)phenyl]-1-(2-thienylcarbonyl)-1H-1,2,4-triazole-3,5-diamine] | – | 868 | 1420
